# Like-named read-outs stand apart in the source and are kept apart here.
# How the values were obtained:
# Candida tropicalis 156 = assay: Antifungal microdilution broth method, C. tropicalis; format: cell-based
# Experimental: (§1) The antifungal properties were evaluated against five yeast strains, namely: Candida albicans ATCC 44859, Candida tropicalis 156, Candida krusei […], Candida glabrata 20/I, Trichosporon […] 1188 and three strains of filamentous fungi: Aspergillus fumigatus 231, Lichtheimia corymbifera 272, and Trichophyton interdigitale 445. A microdilution broth method was performed according to EUCAST II, III instructions with slight modifications. Briefly, tested compounds were dissolved in DMSO and diluted in a twofold manner with RPMI-1640 medium with L-glutamine, supplemented with 2% glucose (w/v) and buffered to pH 7.0 with 3 morpholinopropane-1-sulfonic acid (all components were purchased from Sigma-Aldrich, USA). […] Positive controls consisted of test microbe solely, while negative controls consisted of medium and DMSO. Internal quality control was included too. Visual inspection was used for MIC endpoints evaluation. The experiments were conducted in duplicates. For the results to be valid, the difference in MIC determined from two parallel measurements must not be greater than one step on the dilution scale. PABA and triazole antimycotic drug fluconazole were involved as the reference compounds.
# [1] = test system: Aspergillus fumigatus 231; assay: Antifungal microdilution broth method, A. fumigatus; format: cell-based
# Experimental: as §1
# Candida glabrata 20/I = assay: Antifungal microdilution broth method, C. glabrata; format: cell-based; settings: Nakaseomyces glabratus
# Experimental: as §1
# [2] = test system: Enterococcus faecalis ATCC 29212, CCM 4224; assay: Antibacterial microdilution broth method, E. faecalis; format: cell-based; settings: Enterococcus faecalis
# [3] = test system: four Gram-positive and four Gram-negative strains; assay: Antibacterial activity; format: cell-based; settings: statement over the bacterial panel; time not stated
# [4] = test system: Klebsiella pneumoniae D 11750/08; assay: Antibacterial microdilution broth method, K. pneumoniae; settings: K. pneumoniae D 11750/08; for MIC KP 24 h: 24 h incubation; for MIC KP 48 h: 48 h incubation
# [5] = test system: Pseudomonas aeruginosa ATCC 27853, CCM 3955; assay: Antibacterial microdilution broth method, P. aeruginosa; format: cell-based; settings: Pseudomonas aeruginosa, P. aeruginosa
# [6] = test system: Mycobacterium tuberculosis H37Rv (331/88); assay: Antimycobacterial micromethod in Šula's medium, M. tuberculosis; format: cell-based
# eight fungal strains = assay: Antifungal activity; format: cell-based; settings: statement over the fungal panel; time not stated
# Experimental: as §1
# [7] = test system: Staphylococcus epidermidis H 6966/08; assay: Antibacterial microdilution broth method, S. epidermidis; format: cell-based; settings: Staphylococcus epidermidis, H6966/08, S. epidermidis
# [8] = test system: M. kansasii 6509/96 (clinical isolate); assay: Antimycobacterial micromethod in Šula's medium, M. kansasii 6509/96; format: cell-based; settings: Mycobacterium kansasii
# [9] = test system: methicillin-resistant Staphylococcus aureus ATCC 43300, CCM 4750 (MRSA); assay: Antibacterial microdilution broth method, MRSA; format: cell-based; settings: Staphylococcus aureus
# [10] = test system: Mycobacterium kansasii 235/80; assay: Antimycobacterial micromethod in Šula's medium, M. kansasii 235/80; format: cell-based
# [11] = test system: Staphylococcus aureus ATCC 29213, CCM 4223; assay: Antibacterial microdilution broth method, S. aureus; format: cell-based
# [12] = test system: Escherichia coli ATCC 25922, CCM 3954; assay: Antibacterial microdilution broth method, E. coli; format: cell-based; settings: Escherichia coli
# Candida krusei E28 = assay: Antifungal microdilution broth method, C. krusei; format: cell-based; settings: Pichia kudriavzevii
# Experimental: as §1
# [13] = test system: Mtb. 331/88 and three non-tuberculous mycobacterial strains; assay: Antimycobacterial activity; format: cell-based; settings: statement over four mycobacterial strains; time not stated
# Trichosporon asahii 1188 = assay: Antifungal microdilution broth method, T. asahii; format: cell-based
# Experimental: as §1
# [14] = test system: Mycobacterium avium 330/88; assay: Antimycobacterial micromethod in Šula's medium, M. avium; format: cell-based
# [15] = test system: Candida albicans ATCC 44859; assay: Antifungal microdilution broth method, C. albicans; format: cell-based
# Experimental: as §1
# [16] = test system: Trichophyton interdigitale 445; assay: Antifungal microdilution broth method, T. interdigitale; format: cell-based
# Experimental: as §1
# [17] = test system: Lichtheimia corymbifera 272; assay: Antifungal microdilution broth method, L. corymbifera; format: cell-based
# Experimental: as §1
# [18] = test system: ESBL-positive Klebsiella pneumoniae J 14368/08
# staphylococci = settings: according to EUCAST ref 33; cited from earlier work
# [19] = 24 h incubation, read-out: MIC EF 24 h
# [20] = 48 h incubation, read-out: MIC EF 48 h
# [21] = 24 h incubation, read-out: MIC PA 24 h
# [22] = 48 h incubation, read-out: MIC PA 48 h
# [23] = 336 h, 14 days incubation at 37 °C, read-out: MIC Mtb. 331/88 14 d
# [24] = 504 h, 21 days incubation at 37 °C, read-out: MIC Mtb. 331/88 21 d
# [25] = 24 h incubation, read-out: MIC SE 24 h
# [26] = 48 h incubation, read-out: MIC SE 48 h
# [27] = 168 h, 7 days incubation at 37 °C, read-out: MIC M. kansasii 6509/96 7 d
# [28] = 336 h, 14 days incubation at 37 °C, read-out: MIC M. kansasii 6509/96 14 d
# [29] = 504 h, 21 days incubation at 37 °C, read-out: MIC M. kansasii 6509/96 21 d
# [30] = 24 h incubation, read-out: MIC MRSA 24 h
# [31] = 48 h incubation, read-out: MIC MRSA 48 h
# [32] = 235/80, 168 h, 7 days incubation at 37 °C, read-out: MIC M. kansasii 235/80 7 d
# [33] = 235/80, 336 h, 14 days incubation at 37 °C, read-out: MIC M. kansasii 235/80 14 d
# [34] = 235/80, 504 h, 21 days incubation at 37 °C, read-out: MIC M. kansasii 235/80 21 d
# [35] = 24 h incubation, read-out: MIC SA 24 h
# [36] = 48 h incubation, read-out: MIC SA 48 h
# [37] = 24 h incubation, read-out: MIC EC 24 h
# [38] = 48 h incubation, read-out: MIC EC 48 h
# [39] = 330/88, 336 h, 14 days incubation at 37 °C, read-out: MIC M. avium 330/88 14 d
# [40] = 330/88, 504 h, 21 days incubation at 37 °C, read-out: MIC M. avium 330/88 21 d
# [41] = ATCC44859, 24 h, read-out: MIC CA 24 h
# [42] = ATCC44859, 48 h, read-out: MIC CA 48 h
structure (smiles),measurement,setting,value
"COc1ccccc1C=Nc1ccc(C(=O)O)cc1 [1s, 4-[(2-Methoxybenzylidene)amino]benzoic acid]",MIC,"Candida tropicalis 156; 24 h, read-out: MIC CT 24 h",> 500 µM
same,MIC,"Candida tropicalis 156; 48 h, read-out: MIC CT 48 h",> 500 µM
same,MIC,"[1]; 24 h, read-out: MIC AF 24 h",> 500 µM
same,MIC,"[1]; 48 h, read-out: MIC AF 48 h",> 500 µM
same,MIC,"Candida glabrata 20/I; 24 h, read-out: MIC CG 24 h",> 500 µM
same,MIC,"Candida glabrata 20/I; 48 h, read-out: MIC CG 48 h",> 500 µM
same,MIC,[2]; [19],> 500 µM
same,MIC,[2]; [20],> 500 µM
same,"MIC, antibacterial activity",[3],avoided any antibacterial action
same,MIC KP 24 h,[4],>500 µM
same,MIC KP 48 h,[4],>500 µM
same,MIC,[5]; [21],> 500 µM
same,MIC,[5]; [22],> 500 µM
same,MIC,[6]; [23],1000 µM
same,MIC,[6]; [24],1000 µM
same,"MIC, antifungal activity",eight fungal strains,no antimycotic potency
same,MIC,[7]; [25],> 500 µM
same,MIC,[7]; [26],> 500 µM
same,MIC,[8]; [27],1000 µM
same,MIC,[8]; [28],1000 µM
same,MIC,[8]; [29],1000 µM
same,MIC,[9]; [30],> 500 µM
same,MIC,[9]; [31],> 500 µM
same,MIC,[10]; [32],1000 µM
same,MIC,[10]; [33],1000 µM
same,MIC,[10]; [34],> 1000 µM
same,MIC,[11]; [35],> 500 µM
same,MIC,[11]; [36],> 500 µM
same,MIC,[12]; [37],> 500 µM
same,MIC,[12]; [38],> 500 µM
same,MIC,"Candida krusei E28; 24 h, read-out: MIC CK 24 h",> 500 µM
same,MIC,"Candida krusei E28; 48 h, read-out: MIC CK 48 h",> 500 µM
same,"MIC, antimycobacterial activity",[13],only negligible antimycobacterial activity
same,MIC,"Trichosporon asahii 1188; 24 h, read-out: MIC TA 24 h",> 500 µM
same,MIC,"Trichosporon asahii 1188; 48 h, read-out: MIC TA 48 h",> 500 µM
same,MIC,[14]; [39],> 1000 µM
same,MIC,[14]; [40],> 1000 µM
same,MIC,[15]; [41],> 500 µM
same,MIC,[15]; [42],> 500 µM
same,MIC,"[16]; 72 h, read-out: MIC TI 72 h",> 500 µM
same,MIC,"[16]; 120 h, read-out: MIC TI 120 h",> 500 µM
same,MIC,"[17]; 24 h, read-out: MIC LC 24 h",> 500 µM
same,MIC,"[17]; 48 h, read-out: MIC LC 48 h",> 500 µM
same,MIC KP-E 24 h,[18],>500 µM
same,MIC KP-E 48 h,[18],>500 µM
"O=C(O)c1ccc(N=Cc2ccc(O)cc2)cc1 [1t, 4-[(4-Hydroxybenzylidene)amino]benzoic acid]",MIC,"Candida tropicalis 156; 24 h, read-out: MIC CT 24 h",> 500 µM
same,MIC,"Candida tropicalis 156; 48 h, read-out: MIC CT 48 h",> 500 µM
same,MIC,"[1]; 24 h, read-out: MIC AF 24 h",> 500 µM
same,MIC,"[1]; 48 h, read-out: MIC AF 48 h",> 500 µM
same,MIC,"Candida glabrata 20/I; 24 h, read-out: MIC CG 24 h",> 500 µM
same,MIC,"Candida glabrata 20/I; 48 h, read-out: MIC CG 48 h",> 500 µM
same,MIC,[2]; [19],> 500 µM
same,MIC,[2]; [20],> 500 µM
same,"MIC, antibacterial activity",[3],avoided any antibacterial action
same,MIC KP 24 h,[4],>500 µM
same,MIC KP 48 h,[4],>500 µM
same,MIC,[5]; [21],> 500 µM
same,MIC,[5]; [22],> 500 µM
same,MIC,[6]; [23],1000 µM
same,MIC,[6]; [24],1000 µM
same,"MIC, antifungal activity",eight fungal strains,no antimycotic potency
same,MIC,[7]; [25],> 500 µM
same,MIC,[7]; [26],> 500 µM
same,MIC,[8]; [27],1000 µM
same,MIC,[8]; [28],1000 µM
same,MIC,[8]; [29],1000 µM
same,MIC,[9]; [30],> 500 µM
same,MIC,[9]; [31],> 500 µM
same,MIC,[10]; [32],1000 µM
same,MIC,[10]; [33],1000 µM
same,MIC,[10]; [34],> 1000 µM
same,MIC,[11]; [35],> 500 µM
same,MIC,[11]; [36],> 500 µM
same,MIC,[12]; [37],> 500 µM
same,MIC,[12]; [38],> 500 µM
same,MIC,"Candida krusei E28; 24 h, read-out: MIC CK 24 h",> 500 µM
same,MIC,"Candida krusei E28; 48 h, read-out: MIC CK 48 h",> 500 µM
same,"MIC, antimycobacterial activity",[13],only negligible antimycobacterial activity
same,MIC,"Trichosporon asahii 1188; 24 h, read-out: MIC TA 24 h",> 500 µM
same,MIC,"Trichosporon asahii 1188; 48 h, read-out: MIC TA 48 h",> 500 µM
same,MIC,[14]; [39],1000 µM
same,MIC,[14]; [40],> 1000 µM
same,MIC,[15]; [41],> 500 µM
same,MIC,[15]; [42],> 500 µM
same,MIC,"[16]; 72 h, read-out: MIC TI 72 h",> 500 µM
same,MIC,"[16]; 120 h, read-out: MIC TI 120 h",> 500 µM
same,MIC,"[17]; 24 h, read-out: MIC LC 24 h",> 500 µM
same,MIC,"[17]; 48 h, read-out: MIC LC 48 h",> 500 µM
same,MIC KP-E 24 h,[18],>500 µM
same,MIC KP-E 48 h,[18],>500 µM
O=C1CN(/N=C/c2ccc([N+](=O)[O-])o2)C(=O)N1 [nitrofurantoin],breakpoint for staphylococci,staphylococci,32 to 64 µg/mL

# Reference: paper PMC7023430, “4-Aminobenzoic Acid Derivatives: Converting Folate Precursor to Antimicrobial and Cytotoxic Agents” (Biomolecules, 2019)
